Laboratory results taken from PubChem BioAssay AID1845201 (Molecular Pharmacology Branch, DTP, NCI, 2023).
Several values for one entry are separate records, joined by “and”; a condition that tells them apart may be missing. Equal values may be shown once.

Test system: COR L88 complex tumor spheroid viability
Test: Anticancer human tumor COR L88 cell line growth inhibition;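 further: compound exposure lasted 7 days before viability readout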;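 on viability, T/C: percent of DMSO vehicle-treated spheroids = 100%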
Conditions: for viability, T/C: stronger effect = lower value
Text: Multicellular complex tumor spheroid response to DNA repair inhibitors in combination with DNA-damaging drugs
This study explores the anticancer activities of DNA-damaging drugs and inhibitors of DNA damage repair, both as single agents and in combinations. Complex tumor spheroids comprised of malignant cells, endothelial cells and mesenchymal stem cells served as an in vitro model for human solid tumors. This model system incorporates physiologically relevant features and patient-derived or established malignant cell lines with clinically relevant genetic alterations from many tumor types. Twenty-six patient-derived or established malignant cell lines were evaluated representing sarcoma, melanoma, small cell lung cancer (SCLC), non-small cell lung cancer (NSCLC), as well as bladder, ovarian and pancreatic cancers. The concentration ranges selected for each drug and investigational agent were based upon clinically achievable concentrations if the clinical Cmax of the agent was known.
Compounds. The drugs and compounds olaparib (NSC753686), talazoparib (NSC767125), berzosertib (NSC777718), elimusertib (NSC800525), nedisertib (NSC802822), VX-984 (NSC792969), AZD-1390 (NSC803789), temozolomide (NSC362856), topotecan (NSC609699), trabectedin (NSC813783), staurosporine (NSC755774), and gemcitabine (NSC613327) were obtained from the National Cancer Institute (NCI) Developmental Therapeutics Program Chemical Repository. The FDA-approved anticancer drug set is available from the Developmental Therapeutics Program at https://dtp.cancer.gov/organization/dscb/obtaining/available_plates.htm. […] The stock solutions were prepared in dimethyl sulfoxide (DMSO, Sigma-Aldrich, St. Louis, MO, cat. D2650) at 400-fold the tested concentration and stored at -70 degrees C. Prior to their use, the stock solutions were diluted in fresh medium and the final DMSO concentration in the assay was 0.25% (v/v). All drugs and investigational agents were tested over a range starting from a high concentration at or near the clinical Cmax and decreasing in half-log increments. If the clinical Cmax for an agent had not been determined, the highest concentration tested was 10 microM.
Cell Lines. The patient-derived cancer cell (PDC) lines: 156681-154-R-J1-PDC, 283228-195-R-J1-PDC, 287954-098-R-J1-PDC, 292921-168-R-J2-PDC, 349418-098-R-PDC, 425362-245-T-J1-PDC, 556581-035-R-J1-PDC, and BL0293-F563-PDC were received from the NCI Patient-Derived Models Repository (PDMR, https://pdmr.cancer.gov). The established cell lines HS-SY-2 (RRID:CVCL_8719), MPNST, and SYO-1 (RRID:CVCL_7146) were obtained from the Sloan Kettering Institute. The alveolar soft parts sarcoma cell line ASPS-1 (RRID:CVCL_S738) was established at the NCI and grown from internal seed stocks. The following established cell lines were purchased from the American Type Culture Collection (ATCC, Manassas, VA): G-401 (ATCC, cat. CRL-1441, RRID:CVCL_0270), SW982 (ATCC, cat. HTB-93, RRID:CVCL_1734), VA-ES-BJ (ATCC, cat. CRL-2138, RRID:CVCL_1785), NCI-H719 (ATCC, cat. CRL-5837, RRID:CVCL_1582), NCI-H196 (ATCC, cat. CRL-5823, RRID:CVCL_1509), NCI-H841 (ATCC, cat. CRL-5845, RRID:CVCL_1595), NCI-H1618 (ATCC, cat. CRL-5879, RRID:CVCL_1480), NCI-H1876 (ATCC, cat. CRL-5902, RRID:CVCL_1503), DMS 114 (ATCC, cat. CRL-2066; RRID:CVCL_1174), NCI-H211 (ATCC, cat. CRL-5824; RRID:CVCL_1529), and SW 1271 (ATCC, cat. CRL-2177, RRID:CVCL_1716). The small cell lung cancer cell line COR-L88 was purchased from Sigma-Aldrich (cat. 92031917-1VL, RRID:CVCL_1141). The non-small cell lung cancer cell lines NCI-H226 (RRID:CVCL_1544) and NCI-H322M (RRID:CVCL_1557) were established at the NCI and grown from internal seed stocks. Pooled donor human umbilical vein endothelial cells (HUVEC, Lonza, cat. CC-2519) and human mesenchymal stem cells (hMSC, Lonza, cat. PT-2501) were purchased from Lonza (Walkersville, MD).
Cell Culture. All cells were maintained in an incubator at 37 degrees C and 5% CO2 with 95% humidity. […]

In the case of `O=C(c1cc(Cc2n[nH]c(=O)c3ccccc23)ccc1F)N1CCN(C(=O)C2CC2)CC1`, the viability, T/C (compound 0.0949 µM) is reported as 97.2% and 87.7% and 107%, the viability, T/C (compound 0.3 µM) is reported as 98.2% and 101% and 103% and the viability, T/C (compound 0.949 µM) is reported as 101% and 97.9% and 94.2%. The viability, T/C (compound 3 µM) was 85.7% and 87.9% and 90.7%, the viability, T/C (compound 9.49 µM) was 61.5% and 67.3% and 70.3% and the viability, T/C (compound 30 µM) was 49.8% and 50.5% and 58.2%. For the same compound, the IC50 (curve of compound) was > 30000 nM.
For `CNCc1ccc(-c2cc(-c3nc(-c4ccc(S(=O)(=O)C(C)C)cc4)cnc3N)on2)cc1` + Cn1nnc2c(C(N)=O)ncn2c1=O, the IC50 (curve of first compound, second compound 1 µM) was 618 nM, the IC50 (curve of first compound, second compound 3.16 µM) was 639 nM and the IC50 (curve of first compound, second compound 10 µM) was 463 nM. It also gave an IC50 (curve of first compound, second compound 31.6 µM) of 448 nM, an IC50 (curve of first compound, second compound 100 µM) of 386 nM and a viability, T/C (second compound 1 µM, first compound 0.00949 µM) of 99.9%. For the same compound, the viability, T/C (second compound 1 µM, first compound 0.03 µM) was 97.6%, the viability, T/C (second compound 1 µM, first compound 0.0949 µM) was 102% and the viability, T/C (second compound 1 µM, first compound 0.3 µM) was 72.1%. It also gave a viability, T/C (second compound 1 µM, first compound 0.949 µM) of 36.8%, a viability, T/C (second compound 1 µM, first compound 3 µM) of 12.9% and a viability, T/C (second compound 3.16 µM, first compound 0.00949 µM) of 92.9%. For the same compound, the viability, T/C (second compound 3.16 µM, first compound 0.03 µM) was 107%, the viability, T/C (second compound 3.16 µM, first compound 0.0949 µM) was 112% and the viability, T/C (second compound 3.16 µM, first compound 0.3 µM) was 81.3%. The viability, T/C (second compound 3.16 µM, first compound 0.949 µM) was 33.6%, the viability, T/C (second compound 3.16 µM, first compound 3 µM) was 11% and the viability, T/C (second compound 10 µM, first compound 0.00949 µM) was 87.4%. The viability, T/C (second compound 10 µM, first compound 0.03 µM) was 99.7%, the viability, T/C (second compound 10 µM, first compound 0.0949 µM) was 95.3% and the viability, T/C (second compound 10 µM, first compound 0.3 µM) was 63.8%. It also gave a viability, T/C (second compound 10 µM, first compound 0.949 µM) of 25.9%, a viability, T/C (second compound 10 µM, first compound 3 µM) of 10.8% and a viability, T/C (second compound 31.6 µM, first compound 0.00949 µM) of 80.7%. For the same compound, the viability, T/C (second compound 31.6 µM, first compound 0.03 µM) was 90.9%, the viability, T/C (second compound 31.6 µM, first compound 0.0949 µM) was 101% and the viability, T/C (second compound 31.6 µM, first compound 0.3 µM) was 62.5%. For the same compound, the viability, T/C (second compound 31.6 µM, first compound 0.949 µM) was 25.1%, the viability, T/C (second compound 31.6 µM, first compound 3 µM) was 11.2% and the viability, T/C (second compound 100 µM, first compound 0.00949 µM) was 78.3%. For the same compound, the viability, T/C (second compound 100 µM, first compound 0.03 µM) was 81%, the viability, T/C (second compound 100 µM, first compound 0.0949 µM) was 76.5% and the viability, T/C (second compound 100 µM, first compound 0.3 µM) was 58%. The viability, T/C (second compound 100 µM, first compound 0.949 µM) was 21.3% and the viability, T/C (second compound 100 µM, first compound 3 µM) was 9.59%.
With `Cn1ncnc1[C@H]1c2n[nH]c(=O)c3cc(F)cc(c23)N[C@@H]1c1ccc(F)cc1` + CC[C@@]1(O)C(=O)OCc2c1cc1n(c2=O)Cc2cc3c(CN(C)C)c(O)ccc3nc2-1 the IC50 (curve of first compound, second compound 0.003 µM) was 90.9 nM, the IC50 (curve of first compound, second compound 0.00949 µM) was < 9.49 nM and the IC50 (curve of first compound, second compound 0.03 µM) was < 9.49 nM. The IC50 (curve of first compound, second compound 0.0949 µM) was < 9.49 nM, the IC50 (curve of first compound, second compound 0.3 µM) was < 9.49 nM and the viability, T/C (second compound 0.003 µM, first compound 0.00949 µM) was 65.9%. For the same compound, the viability, T/C (second compound 0.003 µM, first compound 0.03 µM) was 61.9%, the viability, T/C (second compound 0.003 µM, first compound 0.0949 µM) was 47.4% and the viability, T/C (second compound 0.003 µM, first compound 0.3 µM) was 42.4%. For the same compound, the viability, T/C (second compound 0.003 µM, first compound 0.949 µM) was 41.1%, the viability, T/C (second compound 0.003 µM, first compound 3 µM) was 38.3% and the viability, T/C (second compound 0.00949 µM, first compound 0.00949 µM) was 49.7%. For the same compound, the viability, T/C (second compound 0.00949 µM, first compound 0.03 µM) was 44%, the viability, T/C (second compound 0.00949 µM, first compound 0.0949 µM) was 44.1% and the viability, T/C (second compound 0.00949 µM, first compound 0.3 µM) was 43.1%. For the same compound, the viability, T/C (second compound 0.00949 µM, first compound 0.949 µM) was 40.2%, the viability, T/C (second compound 0.00949 µM, first compound 3 µM) was 40.6% and the viability, T/C (second compound 0.03 µM, first compound 0.00949 µM) was 48.2%. It also gave a viability, T/C (second compound 0.03 µM, first compound 0.03 µM) of 49.5%, a viability, T/C (second compound 0.03 µM, first compound 0.0949 µM) of 43.2% and a viability, T/C (second compound 0.03 µM, first compound 0.3 µM) of 41.5%. It also gave a viability, T/C (second compound 0.03 µM, first compound 0.949 µM) of 38.1%, a viability, T/C (second compound 0.03 µM, first compound 3 µM) of 36.5% and a viability, T/C (second compound 0.0949 µM, first compound 0.00949 µM) of 41.2%. The viability, T/C (second compound 0.0949 µM, first compound 0.03 µM) was 38.4%, the viability, T/C (second compound 0.0949 µM, first compound 0.0949 µM) was 37.3% and the viability, T/C (second compound 0.0949 µM, first compound 0.3 µM) was 34.9%. The viability, T/C (second compound 0.0949 µM, first compound 0.949 µM) was 31.6%, the viability, T/C (second compound 0.0949 µM, first compound 3 µM) was 24.5% and the viability, T/C (second compound 0.3 µM, first compound 0.00949 µM) was 36%. The viability, T/C (second compound 0.3 µM, first compound 0.03 µM) was 32.6%, the viability, T/C (second compound 0.3 µM, first compound 0.0949 µM) was 32.4% and the viability, T/C (second compound 0.3 µM, first compound 0.3 µM) was 26.9%. It also gave a viability, T/C (second compound 0.3 µM, first compound 0.949 µM) of 24.6% and a viability, T/C (second compound 0.3 µM, first compound 3 µM) of 17.4%.
